How the values were obtained:
Smad2/3 phosphorylation = assay: Phospho-Smad2/3 Inhibition Assay in PANC-1; format: cell-based; conditions: Homo sapiens; 10 μM compound, 3 h; TGF-b1 stimulated PANC-1; western blot; read-out: % inh of Smad2/3 phosphorylation in PANC-1
Experimental: Cell lines: Human tumor-derived pancreatic cancer cell line Panc-1 and mouse muscle myoblast C2C12 were purchased from American Type Culture Collection and grown in complete DMEM-High Glucose, supplemented with penicillin (100 U/mL), streptomycin (100 μg/mL), and 10% heat-inactivated FBS at 37° C. in a humidified incubator with 5% CO2.
Method: Cells were plated at 350000 cells/well density in a 12-well plate, allowed 3 hours to adhere to the plate, then starved in the appropriate medium in the presence of 0.5% FBS overnight. The small molecules to be tested were added to the cells in the final concentration of 10 μM in the presence of 0.3% DMSO for 3 hours incubation at 37° C. For IC50 value determination, serial dilutions of compounds were added to cells under the same conditions. Next, Panc-1 cells were stimulated with 10 ng/ml TGF-b1 for 1 hour, and C2C12 cells were stimulated with 10 ng/ml TGF-b1 for 20 minutes (recombinant human TGF-b1, R&D Systems). After stimulation cells were lysed with lysis buffer containing 1% Triton X-100, EDTA, and Halt™ Protease & Phosphatase Inhibitor Cocktail (Thermo Scientific). Protein concentration was assessed by BCA protein assay (Thermo Scientific). Phosphorylation level of Smad2/Smad3 was determined by western blot.
Western blot protocol: Equal amounts of protein (15-50 μg) were separated by SDS-PAGE and transferred to nitrocellulose membranes (Invitrogen by Thermo Fisher Scientific). The membrane was stained with Ponceau S Stain (Boston BioProducts) to verify uniform protein loading. Membranes were blocked with 10% milk and phosphorylation levels of Smad2/Smad3 were assessed by incubating overnight at 4° C. with the following antibodies: Phospho-Smad2 (Ser465/467) and Phosph-Smad3 (Ser423/425), both from Cell Signaling Technology. Then the membranes were incubated with HRP-conjugated secondary antibody (Jackson Immunoresearch, West Grove, PA). Bands were incubated in Amersham ECL Prime Western Blotting Detection Reagent (GE Healthcare) and visualized using the ChemiDoc MP imaging system (Bio-Rad).

KRas wild type = assay: Ras GTP Binding Domain Inhibition Assay, KRas wild type; conditions: at 20 μM; for KRas wild type + SOS: % inh.: with SOS; for KRas wild type: % inh.: without SOS
How it was run: (§1)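 Compounds were tested at 20 μM final, or as dilution series for IC50, against nickel-plate-captured His-tagged GTPase proteins for 3 h at room temperature. Sos exchange factor could be present for the last hour. Labelled GTP (100 nM Cy3 or Cy5) was then bound for 45 min, wells were washed, and retained fluorescence was measured.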

IL-6 = assay: Mouse IL6 Quantification Assay (LPS-stimulated RAW 264.7); format: cell-based; parameters: dose or concentration left out as unconfirmed; conditions: RAW264.7, ELISA, read-out: IL-6: % inh.
KRas G12D mutant = assay: Ras GTP Binding Domain Inhibition Assay, KRas G12D mutant; conditions: at 20 μM; for KRas G12D mutant + SOS: % inh.: with SOS; for KRas G12D mutant: % inh.: without SOS
How it was run: as §1

KRas G12C mutant = assay: Ras GTP Binding Domain Inhibition Assay, KRas G12C mutant; conditions: at 20 μM; for KRas G12C mutant + SOS: % inh.: with SOS; for KRas G12C mutant: % inh.: without SOS
How it was run: as §1

TNFα = assay: Mouse TNF Alpha Quantification Assay (LPS-stimulated RAW 264.7); format: cell-based; parameters: dose or concentration left out as unconfirmed; conditions: RAW264.7, ELISA, read-out: TNFα: % inh.
Rho-A = assay: Ras GTP Binding Domain Inhibition Assay, Rho-A; conditions: at 20 μM; without SOS
How it was run: as §1

KRas wild type + SOS: % inh. (KRas wild type) | KRas wild type: % inh. (KRas wild type) | KRas G12D mutant + SOS: % inh. (KRas G12D mutant; Table 7) | KRas G12D mutant + SOS: % inh. (KRas G12D mutant; Table 8) | KRas G12D mutant: % inh. (KRas G12D mutant; Table 7) | KRas G12D mutant: % inh. (KRas G12D mutant; Table 8) | KRas G12C mutant + SOS: % inh. (KRas G12C mutant) | KRas G12C mutant: % inh. (KRas G12C mutant) | Rho-A: % inh. (Rho-A) | Compound | inhibition at 10 µM (Smad2/3 phosphorylation) [%] | inhibition (IL-6) [%] | inhibition (TNFα) [%]
D (D = 76-100% inhibition) | C (C = 46-75% inhibition) | D (D = 76-100% inhibition) | D (D = 76-100% inhibition) | B (B = 26-45% inhibition) | B (B = 26-45% inhibition) | D (D = 76-100% inhibition) | C (C = 46-75% inhibition) | B (B = 26-45% inhibition) | COCCn1ccc(-c2sc3nc(-c4nccn4C)nc(NC[C@H]4CC[C@H]4COC)c3c2C)n1 (racemic) [Compound 38, rac-6-(1-(2-Methoxyethyl)-1H-pyrazol-3-yl)-N-(((1S,2R)-2-(methoxymethyl)cyclobutyl)methyl)-5-methyl-2-(1-methyl-1H-imidazol-2-yl)thieno[2,3-d]pyrimidin-4-amine] | 46 to 75 | 76 to 100 | 76 to 100
D (D = 76-100% inhibition) | B (B = 26-45% inhibition) | C (C = 46-75% inhibition) | C (C = 46-75% inhibition) | A (A = 1-25% inhibition) | A (A = 1-25% inhibition) | D (D = 76-100% inhibition) | B (B = 26-45% inhibition) | 0 (0 = 0% inhibition) | COc1cccc(-c2sc3nc(-c4nccn4C)nc(N[C@@H]4CC[C@@H](OC)C4)c3c2-c2ccccc2)c1F (racemic) [Compound 41, 6-(2-Fluoro-3-methoxyphenyl)-N-((1R,3R)-3-methoxycyclopentyl)-2-(1-methyl-1H-imidazol-2-yl)-5-phenylthieno[2,3-d]pyrimidin-4-amine] | 76 to 100 | 76 to 100 | 76 to 100
C (C = 46-75% inhibition) | B (B = 26-45% inhibition) | C (C = 46-75% inhibition) | C (C = 46-75% inhibition) | C (C = 46-75% inhibition) | C (C = 46-75% inhibition) | D (D = 76-100% inhibition) | C (C = 46-75% inhibition) | C (C = 46-75% inhibition) | COc1cccc(Nc2nc(-c3nccn3C)nc3sc(-c4ccn(C(C)C)n4)c(C)c23)c1 [Compound 17, 6-(1-Isopropyl-1H-pyrazol-3-yl)-N-(3-methoxyphenyl)-5-methyl-2-(1-methyl-1H-imidazol-2-yl)thieno[2,3-d]pyrimidin-4-amine] | 46 to 75 | 76 to 100 | 76 to 100
D (D = 76-100% inhibition) | D (D = 76-100% inhibition) | C (C = 46-75% inhibition) | C (C = 46-75% inhibition) | B (B = 26-45% inhibition) | B (B = 26-45% inhibition) | D (D = 76-100% inhibition) | C (C = 46-75% inhibition) | D (D = 76-100% inhibition) | COc1cc(Nc2nc(-c3nccn3C)nc3sc(-c4ccn(C(C)C)n4)c(C)c23)ncn1 [Compound 19, 6-(1-Isopropyl-1H-pyrazol-3-yl)-N-(6-methoxypyrimidin-4-yl)-5-methyl-2-(1-methyl-1H-imidazol-2-yl)thieno[2,3-d]pyrimidin-4-amine] | 76 to 100 | 76 to 100 | 76 to 100
D (D = 76-100% inhibition) | D (D = 76-100% inhibition) | D (D = 76-100% inhibition) | D (D = 76-100% inhibition) | D (D = 76-100% inhibition) | D (D = 76-100% inhibition) | D (D = 76-100% inhibition) | D (D = 76-100% inhibition) | D (D = 76-100% inhibition) | Cc1c(-c2ccn(C(C)C)n2)sc2nc(-c3nccn3C)nc(NCCN3CCOCC3)c12 [Compound 22, 6-(1-Isopropyl-1H-pyrazol-3-yl)-5-methyl-2-(1-methyl-1H-imidazol-2-yl)-N-(2-morpholinoethyl)thieno[2,3-d]pyrimidin-4-amine] | 0 | 76 to 100 | 1 to 25
D (D = 76-100% inhibition) | D (D = 76-100% inhibition) | D (D = 76-100% inhibition) | D (D = 76-100% inhibition) | D (D = 76-100% inhibition) | D (D = 76-100% inhibition) | D (D = 76-100% inhibition) | C (C = 46-75% inhibition) | C (C = 46-75% inhibition) | Cc1c(-c2ccn(C(C)C)n2)sc2nc(-c3nccn3C)nc(NCCN3CCS(=O)(=O)CC3)c12 [Compound 23, 4-(2-((6-(1-Isopropyl-1H-pyrazol-3-yl)-5-methyl-2-(1-methyl-1H-imidazol-2-yl)thieno[2,3-d]pyrimidin-4-yl)amino)ethyl)thiomorpholine 1,1-dioxide] | 0 | 46 to 75 | 0
D (D = 76-100% inhibition) | D (D = 76-100% inhibition) | C (C = 46-75% inhibition) | C (C = 46-75% inhibition) | C (C = 46-75% inhibition) | C (C = 46-75% inhibition) | D (D = 76-100% inhibition) | C (C = 46-75% inhibition) | D (D = 76-100% inhibition) | COCCn1c(-c2nccn2C)nc2sc(-c3ccn(C(C)C)n3)c(C)c2c1=O [Compound 29, 6-(1-Isopropyl-1H-pyrazol-3-yl)-3-(2-methoxyethyl)-5-methyl-2-(1-methyl-1H-imidazol-2-yl)thieno[2,3-d]pyrimidin-4(3H)-one] | 0 | 76 to 100 | 76 to 100
0 (0 = 0% inhibition) | A (A = 1-25% inhibition) | 0 (0 = 0% inhibition) | 0 (0 = 0% inhibition) | 0 (0 = 0% inhibition) | 0 (0 = 0% inhibition) | 0 (0 = 0% inhibition) | A (A = 1-25% inhibition) | 0 (0 = 0% inhibition) | COCCOc1nc(-c2nccn2C)nc2sc(-c3ccn(C(C)C)n3)c(C)c12 [Compound 30, 6-(1-Isopropyl-1H-pyrazol-3-yl)-4-(2-methoxyethoxy)-5-methyl-2-(1-methyl-1H-imidazol-2-yl)thieno[2,3-d]pyrimidine] | 0 | 0 | 0
A (A = 1-25% inhibition) | A (A = 1-25% inhibition) | 0 (0 = 0% inhibition) | 0 (0 = 0% inhibition) | 0 (0 = 0% inhibition) | 0 (0 = 0% inhibition) | 0 (0 = 0% inhibition) | 0 (0 = 0% inhibition) | 0 (0 = 0% inhibition) | COCCCn1c(-c2nccn2C)nc2sc(-c3ccn(C(C)C)n3)c(C)c2c1=O [Compound 31, 6-(1-Isopropyl-1H-pyrazol-3-yl)-3-(3-methoxypropyl)-5-methyl-2-(1-methyl-1H-imidazol-2-yl)thieno[2,3-d]pyrimidin-4(3H)-one] | 0 | 46 to 75 | 0

— patent US20240309015A1, “Methods for the Treatment of Fibrotic Disease” (SHY Therapeutics, LLC, priority 2021, published 2024)
